Reference: patent US20210093637A1, “TOPICAL OINTMENT FORMULATIONS OF PDE-4 INHIBITOR AND THEIR USE IN TREATING SKIN CONDITIONS” (Dermavant Sciences GmbH, priority 2017, published 2021)
“And” between values parts separate entries of the source, which are not always exact repeats. Equal values may be shown once. “Also recorded” adds a separate entry of the source.

Tests used:
[1] = Clinical application of DBS assay: blood levels in pediatric trial of E6005 ointment; assay type: in vivo, human; conditions: pediatric subjects; E6005 ointment 0.05% or 0.2% twice a day for two weeks; 147 DBS samples
Protocol: Clinical application: A clinical study was performed in which E6005 ointment containing 0.05% or 0.2% was topically applied twice a day for two weeks to pediatric subjects. Blood samples were obtained at 1- and 2-week post-dose as well as subsequent 7-day follow-up period in collection tubes with K2-EDTA as an anticoagulant, thereafter put on ice as soon as possible to reduce possible conversion of E6005 to M11. Details on sample handling at the clinics were clarified in a lab manual; a 25 μL aliquot blood sample was spotted onto the center of circle of DBS cards (four replicates per sample) at clinics, then dried at room temperature for at least 2 h. DBS cards with desiccants were placed in zip lock bags and stored frozen below −20° C. until shipment to a bioanalytical laboratory. Samples were stored below −15° C. at the laboratory until they were subjected to sample processing for the determination of E6005 and M11 concentrations in DBS.

[2] = Phase 2 study in pediatric patients (Example 6), plasma concentrations of RVT-501 and M11 at Week 1; assay type: in vivo, human; conditions: for Plasma concentration, Mean (SD) / Plasma concentration, Median / Plasma concentration, Min / Plasma concentration, max / N with concentrations above LLQ (plasma): Week 1 pre-dose, subjects aged 2 to 11 years, twice daily application of RVT-501 0.5%; for N with concentrations above LLQ (plasma): N 16, LLQ 0.25 ng/mL
Protocol: Pharmacokinetic Endpoint: PK analysis for RVT-501 and M11 metabolite at the Week 1 visit in subjects 2 to 11 years old.
Pharmacokinetic Analyses: RVT-501 and M11 were measured in plasma by a validated assay. Plasma concentrations were summarized as continuous variables.
Pharmacokinetic Concentration Results: A single blood sample was collected pre-dose in subjects aged 2 to 11 years old at Week 1 to assess the concentration of RVT-501 and the M11 metabolite in plasma.

[3] = Open-label Phase 1b study in pediatric patients (Example 7), plasma concentrations of RVT-501 and M11; assay type: in vivo, human; conditions: for subjects with measurable concentrations in plasma at one or more time points: PK Set n=25, LLOQ 0.25 ng/mL
From the text: During the Treatment Phase, subjects, their parent(s), or caregiver applied RVT-501 0.5% ointment to affected areas twice daily for 28 days. Subjects returned to the clinic at Week 1, Week 4, and follow-up for study assessments. On Day 1 and Weeks 2 and 3, subjects were contacted by phone to confirm their status, including any adverse events (AEs) and changes in concomitant medications.
Primary Endpoints: Frequency and severity of AE (local and systemic), Laboratory values, Vital signs, Plasma concentrations of RVT-501 and M11 metabolite.
Analysis Populations: All subjects enrolled in the study who had at least one application of study drug were included in the Safety Set. This was the population for the safety and efficacy analyses. The PK Set included all subjects who underwent plasma PK sampling and had evaluable PK assay results.
Pharmacokinetic Analyses: RVT-501 and M11 were measured in plasma by a validated assay. The number and percent of subjects with measurable concentration at each time point and at any time during the study were summarized. RVT-501 and M11 concentrations were summarized descriptively at each collection time point.

[4] = Blood-to-plasma partition (B/P); assay type: in vitro ADME, human; conditions: for average B/P of two levels: 3 and 160 ng/mL; for blood plasma ratio at 3 ng/mL / blood plasma ratio at 160 ng/mL: human, whole blood and plasma prepared from it
Protocol: Blood-to-plasma partition and shelf-life of refrigerated blood: The blood-to-plasma partition (B/P) of E6005 and M11 was determined by assaying concentrations of E6005 and M11 in whole blood samples and plasma samples prepared from blood samples by centrifugation. […] The average B/P of two levels was 0.679 for E6005 and 0.584 for M11.

[5] = Week 1, RVT-501 0.5% twice daily, person two
[6] = Week 1 Hour 3, RVT-501 0.5% (N = 25)
[7] = Week 1 Hour 7, RVT-501 0.5% (N = 25)
[8] = Week 1 Pre-Dose, RVT-501 0.5% (N = 25)
[9] = Week 4 Pre-Dose, RVT-501 0.5%, N 23

CNc1nc(-c2cccc(NC(=O)c3ccc(C(=O)OC)cc3)c2)c2cc(OC)c(OC)cc2n1 [RVT-501, methyl N-[3-(6,7-dimethoxy-2-methylaminoquinazolin-4-yl)phenyl]terephthalamic acid]
maximum level in blood (DBS) [1]: 1.65 ng/mL
plasma RVT-501 concentration, Subject 03001 ([2]; Week 1, RVT-501 0.5% twice daily, person one): 1.07 ng/mL
plasma RVT-501 concentration, Subject 05002 [2, 5]: 306 ng/mL and 306.00 ng/mL
plasma RVT-501 concentration, Subject 21001 [2, 5]: above the upper limit of quantification; also recorded: above upper limit of quantitation
Plasma concentration, Mean (SD) [2]: 31.69 (88.531) ng/mL
Plasma concentration, Median [2]: 0 ng/mL
Plasma concentration, Min [2]: 0 µg/mL
Plasma concentration, max [2]: 306.00 ng/mL
N with concentrations above LLQ (plasma) [2]: 3
subjects with measurable concentrations in plasma at one or more time points [3]: 40%
mean plasma concentration of RVT-501 ([3]; Week 1, 3 hours post-dose): 102.92 ng/mL
plasma level of RVT-501, Subject 03002 ([3]; Week 1, 3 hours post-dose): 710.0 ng/mL
mean plasma concentration of RVT-501 ([3]; Week 1, 7 hours post-dose): 62.16 ng/mL
plasma level of RVT-501, Subject 03001 ([3]; Week 1, 7 hours post-dose): 80.3 ng/mL
Number of subjects with measurable concentrations, (%) [3, 6]: (24.0) %
Plasma concentration, Max [3, 6]: 1860.00 ng/mL
Plasma concentration, Mean [3, 6]: 102.92 ng/mL
Plasma concentration, Median [3, 6]: 0 µg/mL
Plasma concentration, Min [3, 6]: 0 µg/mL
Number of subjects with measurable concentrations, (%) [3, 7]: (32.0) %
Plasma concentration, Max [3, 7]: 1470.00 ng/mL
Plasma concentration, Mean [3, 7]: 62.16 ng/mL
Plasma concentration, Median [3, 7]: 0 µg/mL
Plasma concentration, Min [3, 7]: 0 µg/mL
Number of subjects with measurable concentrations, (%) [3, 8]: (24.0) %
Plasma concentration, Max [3, 8]: 147.00 ng/mL
Plasma concentration, Mean [3, 8]: 6.00 ng/mL
Plasma concentration, Median [3, 8]: 0 µg/mL
Plasma concentration, Min [3, 8]: 0 µg/mL
mean plasma concentration of RVT-501 ([3]; Week 1 pre-dose): 6.00 ng/mL
plasma level of RVT-501, Subject 03007 ([3]; Week 1 pre-dose): 147.0 ng/mL
subjects with concentrations of RVT-501 ≥80 ng/ml ([3]; Week 1 visit): 16%
Number of subjects with measurable concentrations, (%) [3, 9]: (13.0) %
Plasma concentration, Max [3, 9]: 0.45 ng/mL
Plasma concentration, Mean [3, 9]: 0.05 ng/mL
Plasma concentration, Median [3, 9]: 0 µg/mL
Plasma concentration, Min [3, 9]: 0 µg/mL
highest plasma concentration of RVT-501 ([3]; human, in vivo): 1 860 ng/mL
average B/P of two levels [4]: 0.679
blood plasma ratio at 3 ng/mL [4]: 0.69
blood plasma ratio at 160 ng/mL [4]: 0.669

CNc1nc(-c2cccc(NC(=O)c3ccc(C(=O)O)cc3)c2)c2cc(OC)c(OC)cc2n1 [Formulation M11, 4-((3-(6,7-dimethoxy-2-(methylamino)quinazolin-4-yl)phenyl)carbamoyl)benzoic acid]
maximum level in blood (DBS) [1]: below the LLOQ
highest plasma M11 concentration (Subject 05002) ([2]; Week 1, RVT-501 0.5% twice daily): 16.90 ng/mL
measurable plasma concentrations of the M11 metabolite (eight subjects out of 16) ([2]; Week 1, ages 2-11 years): near the lower limit of quantitation
Plasma concentration, Mean (SD) [2]: 1.50 (4.194) ng/mL
Plasma concentration, Median [2]: 0.19 ng/mL
Plasma concentration, Min [2]: 0 µg/mL
Plasma concentration, max [2]: 16.90 ng/mL
N with concentrations above LLQ (plasma) [2]: 8
subjects with measurable concentrations in plasma at one or more time points [3]: 40%
highest plasma concentration of M11 (Subject 03007) ([3]; Week 1, 7 hours post-dose): 23.4 ng/mL and 23.40 ng/mL
mean plasma concentration of the M11 metabolite ([3]; Week 1, 7 hours post-dose): 1.24 ng/mL
Number of subjects with measurable concentrations, (%) [3, 6]: (28.0) %
Plasma concentration, Max [3, 6]: 8.58 ng/mL
Plasma concentration, Mean [3, 6]: 0.61 ng/mL
Plasma concentration, Median [3, 6]: 0 µg/mL
Plasma concentration, Min [3, 6]: 0 µg/mL
Number of subjects with measurable concentrations, (%) [3, 7]: (28.0) %
Plasma concentration, Max [3, 7]: 23.40 ng/mL
Plasma concentration, Mean [3, 7]: 1.24 ng/mL
Plasma concentration, Median [3, 7]: 0 µg/mL
Plasma concentration, Min [3, 7]: 0 µg/mL
Number of subjects with measurable concentrations, (%) [3, 8]: (24.0) %
Plasma concentration, Max [3, 8]: 7.64 ng/mL
Plasma concentration, Mean [3, 8]: 0.57 ng/mL
Plasma concentration, Median [3, 8]: 0 µg/mL
Plasma concentration, Min [3, 8]: 0 µg/mL
Number of subjects with measurable concentrations, (%) [3, 9]: (17.4) %
Plasma concentration, Max [3, 9]: 1.07 ng/mL
Plasma concentration, Mean [3, 9]: 0.12 ng/mL
Plasma concentration, Median [3, 9]: 0 µg/mL
Plasma concentration, Min [3, 9]: 0 µg/mL
mean plasma concentration of the M11 metabolite ([3]; all time points except 7 hours post-dose at Week 1): below 1 ng/ml
average B/P of two levels [4]: 0.584
blood plasma ratio at 3 ng/mL [4]: 0.594
blood plasma ratio at 160 ng/mL [4]: 0.574
